Consider 67 compounds from patent US10772858B2, “Benzhydrol derivatives for the management of conditions related to hypoxia inducible factors” (GEORGIA STATE UNIVERSITY RESEARCH FOUNDATION, priority 2015, dated 2020).

The test has as its system LN229HRE-luc/lacZ cells (VEGF HRE, HIF-1 target). In words: Inhibition of hypoxia-inducible gene expression driven by HRE-reporter construct (firefly luciferase) in glioma cells. Format: cell-based. As to conditions: Homo sapiens, Glioma cell; firefly luciferase activity in LN229HRE-luc/LacZ cells, 1 hour pretreatment under normoxia, then hypoxia (1% O2); from dose-response curves. The method, then: Inhibition of Hypoxia-Inducible Gene Expression Driven by Exogenous HRE-Reporter Constructs in Glioma Cells
LN229HRE-luc/lacZ cells were generated by stably transfecting human LN229 glioma cells with a bidirectional reporter construct (pBIGL-V6R) in which the firefly luciferase and LacZ reporter genes are under the control of 6 head to tail tandem copies of the VEGF HRE (hypoxia-responsive element—endogenous HIF-1 target gene) in rightward orientation (clone LN229V6R#18; Hygro selection […]) as reported in Yin et al. Clinical Cancer Research, 2012, 1-11.
Cells were pretreated with different doses of test compounds or 1% DMSO (final concentration in media) vehicle control for 1 hour under normoxia (21% O2); then incubation continued under normoxia or hypoxia (1% O2) using a hypoxia incubator (Thermo Forma model 3130). Firefly luciferase activities in lysates of LN229HRE-luc/LacZ cells were measured with a Dual-Luciferase Reporter Assay System (Promega) in a 20/20 n Luminometer (Promega). The IC50 (μM) value for each individual compound was established from the dose-response curves.
Turning to `COc1ccc(C(O)c2ccc(CO[C@H]3CCOC3)cc2)cc1OC` (stereo partly drawn) [3a, (3,4-Dimethoxyphenyl)(4-((((S)-tetrahydrofuran-3-yl)oxy)methyl)phenyl)methanol], the IC50 is 0.3 µM.

For `COc1ccc(C(O)c2ccc(CO[C@@H]3CCOC3)cc2)cc1OC` (stereo partly shown) [3b], the IC50 turned out to be 3.4 µM.

On to `COc1ccc(C(O)c2ccc(COC3CCOC3)cc2)cc1OC` (stereo not shown) [3c], for which the IC50 was 3.4 µM.

As to `COc1ccc(C(O)c2ccc(CO[C@H]3CCOC3)cn2)cc1OC` (stereo partly shown) [3d], the IC50 is above 5 µM.

As for `COc1ccc(C(O)c2ccc(COc3cccnc3)cn2)cc1OC` (stereo not shown) [3e], the IC50 is above 5 µM.

For the compound `COc1ccc([C@H](O)c2ccc(COC3CCOC3)cc2)cc1OC` (stereo partly shown) [3f], the IC50 was above 5 µM.

For the compound `COc1ccc(C(O)c2ccc(COC3CCCCC3)cc2)cc1OC` (stereo not shown) [3g], the IC50 is 0.4 µM.

As for `COc1ccc(C(O)c2ccc(COC3CCCCC3)cc2)c(OC)c1` (stereo not shown) [3h], the IC50 was 0.68 µM.

With `CCCCOCc1ccc(C(O)c2ccc(OC)c(OC)c2)cc1` (stereo not shown) [3i, (4-(Butoxymethyl)phenyl)(3,4-dimethoxyphenyl)methanol], the IC50 was 0.5 µM.

Regarding `CCCCOCc1ccc(C(O)c2ccc(OC)cc2OC)cc1` (stereo not shown) [3j], the IC50 was 0.63 µM.

As for `CCOCc1ccc(C(O)c2ccc(OC)c(OC)c2)cc1` (stereo not shown) [3k], the IC50 was above 5 µM.

Take `CCOCc1ccc(C(O)c2ccc(OC)cc2)cc1` (stereo not shown) [3l]: the IC50 is above 5 µM.

Consider `CCCOCc1ccc(C(O)c2ccc(OC)c(OC)c2)cc1` (stereo not shown) [3m], for which the IC50 came to 0.3 µM.

In the case of `COc1ccc(C(O)c2ccc(COC(C)C)cc2)cc1OC` (stereo not shown) [3n], the IC50 is above 5 µM.

For the compound `COc1ccc(C(O)c2ccc(COC3CCN(C(=O)OC(C)(C)C)CC3)cc2)cc1OC` (stereo not shown) [3o], the IC50 turned out to be 0.89 µM.

On to `CCCOCc1ccc(C(O)c2ccc(OC)c(OCc3ccccc3)c2)cc1` (stereo not shown) [3p], for which the IC50 is above 5 µM.

As for `CCCCOCc1ccc(C(O)c2cccc(OCc3ccccc3)c2)cc1` (stereo not shown) [3q], the IC50 is above 5 µM.

Turning to `CCCOCc1ccc(C(O)c2ccc(OCOC)cc2)cc1` (stereo not shown) [3r], the IC50 was above 5 µM.

Take `COc1ccc(C(O)c2ccc(COC3CN(C(=O)OC(C)(C)C)C3)cc2)cc1OC` (stereo not shown) [3s]: the half-inhibitory concentration (IC50) is above 5 µM.

Regarding `COc1ccc(C(O)c2ccc(CO[C@@H]3CCN(C(=O)OC(C)(C)C)C3)cc2)cc1OC` (stereo partly shown) [3t], the IC50 was above 5 µM.

`CCCOCc1ccc(C(O)c2ccc(OC)c(OCOC)c2)cc1` (stereo not shown) [3u]: the IC50 was above 5 µM.

Take `CCCOCc1ccc(C(O)c2ccc(OC)c(OCCC)c2)cc1` (stereo not shown) [3v]: the IC50 worked out at 5 µM.

For `CCCOCc1ccc(C(O)c2ccc(OCc3ccccc3)c(OCC)c2)cc1` (stereo not shown) [3w], the IC50 is above 5 µM.

Regarding `COc1ccc(C(O)c2cccc(COc3ccccc3)c2)cc1OC` (stereo not shown) [6a], the IC50 amounted to 1 µM.

For the compound `COc1ccc(C(O)c2cccc(COC3CCN(C(=O)OC(C)(C)C)CC3)c2)cc1OC` (stereo not shown) [6b, Tert-butyl 4-((3-((3,4-dimethoxyphenyl)(hydroxy)methyl)benzyl)oxy)piperidine-1-carboxylate], the IC50 was found to be 0.2 µM.

Take `COc1ccc(C(O)c2cccc(COC3CCN(C(=O)OC(C)(C)C)CC3)c2)c(OC)c1` (stereo not shown) [6c]: the IC50 was determined as 0.55 µM.

Consider `OC(c1ccccc1)c1cccc(COc2cccc3ccccc23)c1` (stereo not shown) [6d], for which the IC50 is above 5 µM.

In the case of `COc1ccc(C(O)c2cccc(COc3cccc4ccccc34)c2)cc1OC` (stereo not shown) [6e], the IC50 came to 1.83 µM.

Turning to `CCOCc1cccc(C(O)c2ccc(OC)cc2)c1` (stereo not shown) [6f], the IC50 is above 5 µM.

Turning to `CCCCOCc1cccc(C(O)c2ccc(OC)cc2)c1` (stereo not shown) [6g], the IC50 is above 5 µM.

As to `CCCCOCc1cccc(C(O)c2ccc(OC)cc2OC)c1` (stereo not shown) [6h], the IC50 was 0.48 µM.

As to `CCCOCc1cccc(C(O)c2ccc(OC)cc2OC)c1` (stereo not shown) [6i], the IC50 was 5 µM.

Regarding `CCCCOCc1cccc(C(O)c2ccc(OC)c(OC)c2)c1` (stereo not shown) [6j], the IC50 was determined as 2.45 µM.

As for `CCCCOc1cccc(C(O)c2cccc(COCCC)c2)c1` (stereo not shown) [6k], the IC50 came out at 3.8 µM.

Turning to `CCCCOCc1cccc(C(O)c2ccc(OC)c(OCc3ccccc3)c2)c1` (stereo not shown) [6l], the IC50 was found to be 2.98 µM.

In the case of `CCCCOCc1cccc(C(O)c2cccc(OCc3ccccc3)c2)c1` (stereo not shown) [6m], the IC50 was above 5 µM.

`CCCCOCc1cccc(C(O)c2ccc(OC)c(OCOC)c2)c1` (stereo not shown) [6n]: the IC50 was determined as 0.75 µM.

`CCCCOCc1cccc(C(O)c2ccc(OC)c(OCCCC)c2)c1` (stereo not shown) [6o]: the IC50 came to 1 µM.

In the case of `CCCCOCc1cccc(C(O)c2ccc(OCc3ccccc3)c(OCC)c2)c1` (stereo not shown) [6p], the IC50 came to 0.62 µM.

For the compound `CCCOCc1ccccc1C(O)c1ccc(OC)c(OC)c1` (stereo not shown) [9a], the IC50 was above 5 µM.

For the compound `CCCCOCc1ccccc1C(O)c1ccc(OC)c(OCc2ccccc2)c1` (stereo not shown) [9b], the IC50 was above 5 µM.

For the compound `CCCCOCc1cccc(C(O)c2cccc(OCOC)c2)c1` (stereo not shown) [9c], the IC50 is above 5 µM.

For `CCCCOCc1cccc(C(O)c2cccc(OCCCC)c2)c1` (stereo not shown) [9d], the IC50 was above 5 µM.

`C=CCOc1ccc(C(O)c2ccc(OC)c(OC)c2)cc1` (stereo not shown) [14a]: the IC50 was above 5 µM.

For `CCCCCOc1ccc(C(O)c2ccc(OC)c(OC)c2)cc1` (stereo not shown) [14b], the IC50 amounted to 1.9 µM.

As to `COc1ccc(C(O)c2ccc(OCCC3CCN(C(=O)OC(C)(C)C)CC3)cc2)cc1OC` (stereo not shown) [14c], the IC50 turned out to be 0.33 µM.

As for `COc1ccc(C(O)c2ccc(OCc3cnco3)cn2)cc1OC` (stereo not shown) [14d], the IC50 was above 5 µM.

As for `CCCCOc1ccc(C(O)c2ccc(OC)c(OC)c2)nc1` (stereo not shown) [15a], the IC50 is above 5 µM.

As to `CCCCOc1ccc(C(O)c2ccc(OC)cc2OC)nc1` (stereo not shown) [15b], the IC50 was above 5 µM.

`COc1ccc(C(O)c2ccc(OC(C)C)cn2)cc1OC` (stereo not shown) [15c]: the IC50 was above 5 µM.

Turning to `COc1ccc(C(O)c2ccc(OC(C)C)cn2)c(OC)c1` (stereo not shown) [15d], the IC50 is above 5 µM.

In the case of `COc1ccc(C(O)c2ccc(CN3CCOCC3)cn2)cc1OC` (stereo not shown) [21a], the IC50 was above 5 µM.

As for `COc1ccc(C(O)c2ccc(CN3CCN(C(=O)OC(C)(C)C)CC3)cc2)cc1OC` (stereo not shown) [21b], the IC50 worked out at 1.49 µM.

Take `COc1ccc(C(O)c2ccc(CBr)cc2)cc1OC` (stereo not shown) [21c]: the IC50 was 1 µM.

As for `COc1ccc(C(O)c2ccccc2)cc1OC` (stereo not shown) [24a], the IC50 was found to be 2.2 µM.

In the case of `COc1ccc(C(O)c2ccc(OC)c(OC)c2)cc1OC` [24b], the IC50 was above 5 µM.

As to `COc1ccc(OC)c(C(O)c2ccc(OC)c(OC)c2)c1` (stereo not shown) [24c], the IC50 is above 5 µM.

As to `COc1ccc(C(O)c2ccc(N3CCN(C)CC3)cc2)cc1OC` (stereo not shown) [24d], the IC50 is above 5 µM.

For the compound `COc1ccc(C(O)c2ccc(C3CCCO3)cc2)cc1OC` (stereo not shown) [24e], the IC50 was found to be 5 µM.

`COc1ccc(C(O)c2ccc(-c3ccccc3)cc2)cc1OC` (stereo not shown) [24f]: the IC50 is above 5 µM.

For the compound `COc1ccc(C(O)c2ccc3c(c2)C=CC(C)(C)O3)cc1OC` (stereo not shown) [26a], the IC50 was determined as 0.6 µM.

For `COc1cccc(C(O)c2ccc3c(c2)C=CC(C)(C)O3)c1` (stereo not shown) [26b], the IC50 was above 5 µM.

Consider `COc1ccc(C(O)c2cc3c(c(OC)c2)OC(C)(C)C=C3)cc1OC` (stereo not shown) [26c], for which the IC50 is 3.1 µM.

With `COc1ccc(C(O)c2ccc3c(n2)C=CC(C)(C)O3)cc1OC` (stereo not shown) [26d], the IC50 was determined as 2.25 µM.

As to `COc1ccc(C(O)c2cc3c(c(OC)c2)OC(C)(C)CC3)cc1OC` (stereo not shown) [27c], the IC50 turned out to be 4.2 µM.

With `COc1ccc(C(O)c2ccc3c(n2)CCC(C)(C)O3)cc1OC` (stereo not shown) [27d], the IC50 is 2.3 µM.

Take `COc1ccc(C(O)c2ccc3c(c2)CCO3)cc1OC` (stereo not shown) [29a]: the IC50 is above 5 µM.
